Reference: ChEMBL document CHEMBL1156116, “Histone deacetylase and microtubules as targets for the synthesis of releasable conjugate compounds” (Bioorg Med Chem Lett, 2009)
Active and inactive are the calls of the source. No cut-off for these calls is given here.

Assays:
[1] = target: T1, Protein deacetylase HDAC6 (Homo sapiens) (UniProt Q9UBN7); experiment: Inhibition of human HDAC6 in human IGROV1 cells assessed as alpha-tubulin acetylation at 0.1 uM after 48 hrs by Western blot analysis; format: cell-based; conditions: IGROV-1
T1 sequence (whole entry): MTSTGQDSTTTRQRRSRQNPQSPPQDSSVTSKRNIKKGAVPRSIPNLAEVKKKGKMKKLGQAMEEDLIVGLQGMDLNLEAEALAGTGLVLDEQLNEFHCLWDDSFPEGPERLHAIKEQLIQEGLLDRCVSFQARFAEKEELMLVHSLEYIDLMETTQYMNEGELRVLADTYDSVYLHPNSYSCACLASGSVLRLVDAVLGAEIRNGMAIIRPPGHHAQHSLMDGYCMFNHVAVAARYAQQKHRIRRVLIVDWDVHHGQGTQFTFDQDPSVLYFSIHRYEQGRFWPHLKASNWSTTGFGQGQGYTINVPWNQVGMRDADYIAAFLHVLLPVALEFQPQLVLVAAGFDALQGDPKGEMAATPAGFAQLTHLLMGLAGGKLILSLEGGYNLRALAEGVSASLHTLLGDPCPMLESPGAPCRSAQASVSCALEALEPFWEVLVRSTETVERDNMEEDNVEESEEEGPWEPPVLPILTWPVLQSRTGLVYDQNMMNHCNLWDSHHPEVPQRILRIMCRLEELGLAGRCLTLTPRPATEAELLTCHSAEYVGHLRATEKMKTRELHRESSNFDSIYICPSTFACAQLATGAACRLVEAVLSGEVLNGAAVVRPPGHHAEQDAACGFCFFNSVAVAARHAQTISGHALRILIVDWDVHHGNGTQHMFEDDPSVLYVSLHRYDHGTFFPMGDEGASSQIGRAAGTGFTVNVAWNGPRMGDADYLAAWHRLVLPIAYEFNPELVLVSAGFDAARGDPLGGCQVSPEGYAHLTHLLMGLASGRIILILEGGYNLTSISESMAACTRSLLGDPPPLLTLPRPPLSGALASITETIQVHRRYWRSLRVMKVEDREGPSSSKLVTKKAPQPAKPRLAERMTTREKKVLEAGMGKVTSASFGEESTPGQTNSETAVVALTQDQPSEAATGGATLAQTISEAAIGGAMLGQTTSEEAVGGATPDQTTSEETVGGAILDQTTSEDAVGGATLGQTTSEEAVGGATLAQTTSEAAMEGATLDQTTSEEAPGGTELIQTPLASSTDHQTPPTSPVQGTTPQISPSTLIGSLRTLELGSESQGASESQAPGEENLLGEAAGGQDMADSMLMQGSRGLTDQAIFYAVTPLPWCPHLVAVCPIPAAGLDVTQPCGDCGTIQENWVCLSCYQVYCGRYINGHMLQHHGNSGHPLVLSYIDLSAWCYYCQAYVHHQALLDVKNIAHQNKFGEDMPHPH

IGROV-1 [2] = experiment: Antiproliferative activity against human IGROV1 cells assessed as growth inhibition after 72 hrs by Coulter counting analysis; format: functional, cell-based; conditions: IGROV-1, 72 h
[3] = target: Histone deacetylase 1 (Homo sapiens) (UniProt Q13547); experiment: Inhibition of human HDAC1 in human IGROV1 cells assessed as histone H4 acetylation at 0.1 uM after 4 hrs by Western blot analysis; format: cell-based; conditions: IGROV-1
Sequence of Histone deacetylase 1 (Homo sapiens) (Q13547 whole entry): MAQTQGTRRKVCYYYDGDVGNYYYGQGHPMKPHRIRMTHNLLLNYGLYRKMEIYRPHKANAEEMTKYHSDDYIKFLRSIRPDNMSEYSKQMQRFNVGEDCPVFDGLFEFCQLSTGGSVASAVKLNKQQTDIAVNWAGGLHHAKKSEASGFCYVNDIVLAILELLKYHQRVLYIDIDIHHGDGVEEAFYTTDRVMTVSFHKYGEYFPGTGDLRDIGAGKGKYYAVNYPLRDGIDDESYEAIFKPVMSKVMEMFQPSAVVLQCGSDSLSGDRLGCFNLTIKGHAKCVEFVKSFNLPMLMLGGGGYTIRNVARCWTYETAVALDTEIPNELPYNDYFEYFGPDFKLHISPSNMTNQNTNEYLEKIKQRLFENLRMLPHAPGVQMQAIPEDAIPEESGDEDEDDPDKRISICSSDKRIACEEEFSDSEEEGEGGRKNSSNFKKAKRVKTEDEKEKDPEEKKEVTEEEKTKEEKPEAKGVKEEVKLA

[4] = target: Histone deacetylase 1 (Homo sapiens) (UniProt Q13547); experiment: Inhibition of human HDAC1 in human IGROV1 cells assessed as histone H4 acetylation after 4 hrs by Western blot analysis; format: cell-based; conditions: IGROV-1
[5] = target: T1, Protein deacetylase HDAC6 (Homo sapiens); experiment: Inhibition of human HDAC6 in human IGROV1 cells assessed as alpha-tubulin acetylation after 4 hrs by Western blot analysis; format: cell-based; conditions: IGROV-1
[6] = target: T1, Protein deacetylase HDAC6 (Homo sapiens); experiment: Inhibition of human HDAC6 in human IGROV1 cells assessed as alpha-tubulin acetylation at 0.33 to 0.1 uM after 48 hrs by Western blot analysis; format: cell-based; conditions: IGROV-1
IGROV-1 [7] = experiment: Induction of apoptosis in human IGROV1 cells at IC80 concentration by TUNEL assay; format: functional

Row | Structure (SMILES) | IC50 (IGROV-1 [2]) [nM] | further results
1 | COc1cc2c(c(OC)c1OC)-c1ccc(SC)c(=O)cc1[C@@H](NC(=O)CCCSSCCCC(=O)N[C@H]1CCc3cc(OC)c(OC)c(OC)c3-c3ccc(SC)c(=O)cc31)CC2 | 50 | inhibition [1]: Active; inhibition [3]: Active
2 | O=C(/C=C/c1ccc(CN(CCO)Cc2ccccc2)cc1)NO | 18 | inhibition [4]: Dose-dependent effect; inhibition [5]: Dose-dependent effect
3 | COc1cc2c(c(OC)c1OC)-c1ccc(SC)c(=O)cc1[C@@H](NC(=O)CCCSSCCCC(=O)O)CC2 | 19 | 
4 | CC(=O)O[C@H]1C(=O)[C@@]2(C)[C@H]([C@H](OC(=O)c3ccccc3)[C@]3(O)C[C@H](OC(=O)[C@H](O)[C@@H](NC(=O)c4ccccc4)c4ccccc4)C(C)=C1C3(C)C)[C@]1(OC(C)=O)CO[C@@H]1C[C@@H]2O [PACLITAXEL] | 60 | 
5 | C/C=C(\C)C(=O)N[C@@H](c1ccccc1)[C@@H](O)C(=O)O[C@H]1C[C@@]2(O)[C@@H](OC(=O)c3ccccc3)[C@@H]3[C@]4(OC(C)=O)CO[C@@H]4C[C@H](O)[C@@]3(C)C(=O)[C@H](OC(C)=O)C(=C1C)C2(C)C [CEPHALOMANNINE] | 300 | 
6 | O=C(/C=C/c1ccc(CNCc2ccccc2)cc1)NO | 480 | inhibition [4]: Dose-dependent effect; inhibition [5]: Dose-dependent effect
7 | CC(C)(C)OC(=O)N(Cc1ccccc1)Cc1ccc(/C=C/C(=O)NO)cc1 | 19100 | 
8 | COc1cc2c(c(OC)c1OC)-c1ccc(SC)c(=O)cc1[C@@H](NC(=O)CCCSSCCCC(=O)OCCN(Cc1ccccc1)Cc1ccc(/C=C/C(=O)NO)cc1)CC2 | 78 | inhibition [6]: Active; Activity (IGROV-1 [7]): 45%
9 | CC(C)(C)OC(=O)N(Cc1ccccc1)Cc1ccc(/C=C/C(=O)NOC2CCCCO2)cc1 (configuration not stated) | 41000 | 
